# Results from patent publication US8163756B2 (priority 2004, dated 2012).
# Counter-ions that a name gives are not always drawn.
# Legend:
# Assay type in all cases: biochemical
# Abl kinase [1] = molecular target: T1, Abl kinase (Homo sapiens, UniProt P00519); assay: Abl kinase assay A2 (as A1, 1.1 nM enzyme, 2 h pre-incubation, 0.5 mM ATP)
# T1 sequence (P00519 229-512): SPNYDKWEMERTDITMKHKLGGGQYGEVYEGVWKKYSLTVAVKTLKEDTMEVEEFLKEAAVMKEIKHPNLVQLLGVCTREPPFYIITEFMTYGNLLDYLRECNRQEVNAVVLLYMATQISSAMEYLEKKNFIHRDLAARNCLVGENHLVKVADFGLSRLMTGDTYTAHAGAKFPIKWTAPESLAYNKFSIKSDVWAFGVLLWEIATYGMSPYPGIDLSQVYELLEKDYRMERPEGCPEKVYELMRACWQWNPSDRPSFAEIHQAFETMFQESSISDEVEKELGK
# Procedure: (§1) IC50 values were calculated from a series of percent inhibition values determined at a range of inhibitor concentrations using software routines as implemented in the GraphPad Prism software package.
# B-Raf(V599E) kinase [2] = molecular target: T2, B-Raf(V599E) kinase (Homo sapiens, UniProt P15056, V600E); assay: B-Raf(V599E) kinase assay B2 (construct 2 at 2 nM, 1 h pre-incubation)
# Procedure: (§2) The test compounds were incubated with the reaction mixtureat 30° C. for 2 h. […] The reaction rate was calculated using the […] time frame. […] IC50 values were calculated from a series of percent inhibition values determined at a range of inhibitor concentrations using software routines as implemented in the GraphPad Prism software package.
# Same as assay B1 except that (1) construct 2 was employed at a nominal concentration of 2 nM (2) the reaction was pre-incubated at 30° C. for 1 h prior to initiation with ATP (3) a reading time frame of 0.5 h to 1.5 h.
# Target sequence in this assay (P15056 433-726 V600E): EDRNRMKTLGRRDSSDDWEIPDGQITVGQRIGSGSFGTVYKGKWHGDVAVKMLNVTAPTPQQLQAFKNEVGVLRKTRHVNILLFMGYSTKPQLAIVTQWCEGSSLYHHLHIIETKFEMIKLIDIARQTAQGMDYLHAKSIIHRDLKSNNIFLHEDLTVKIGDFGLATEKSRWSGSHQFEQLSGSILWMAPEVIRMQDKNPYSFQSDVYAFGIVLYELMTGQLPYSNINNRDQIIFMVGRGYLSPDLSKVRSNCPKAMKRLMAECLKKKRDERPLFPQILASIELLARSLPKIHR
# [3] = molecular target: T3, phosphorylated p-38-alpha kinase (Homo sapiens, UniProt Q16539); assay: P-38 alpha kinase assay P1 (coupled spectrophotometric, 2 h pre-incubation)
# T3 sequence (Q16539 1-360 isoform Q16539-2): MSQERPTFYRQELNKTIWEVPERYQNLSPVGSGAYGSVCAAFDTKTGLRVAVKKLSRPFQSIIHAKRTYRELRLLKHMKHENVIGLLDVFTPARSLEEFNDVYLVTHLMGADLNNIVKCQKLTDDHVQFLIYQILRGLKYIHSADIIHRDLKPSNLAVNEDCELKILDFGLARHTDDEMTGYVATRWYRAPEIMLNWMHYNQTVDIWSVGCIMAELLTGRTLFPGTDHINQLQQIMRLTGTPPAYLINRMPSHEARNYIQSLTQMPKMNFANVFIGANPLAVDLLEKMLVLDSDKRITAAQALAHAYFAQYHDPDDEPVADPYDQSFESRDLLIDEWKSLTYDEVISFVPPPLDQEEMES
# Abl kinase [4] = molecular target: T1, Abl kinase; assay: Abl kinase assay A1 (pyruvate kinase/lactate dehydrogenase coupled, spectrophotometric); details: Method A1
# Procedure: as §1
# KDR kinase [5] = molecular target: T4, KDR kinase (Homo sapiens, UniProt P35968, DEL940-989/E990V); assay: KDR kinase assay K2 (as K1, 2.1 nM enzyme, 2 h pre-incubation, 1.0 mM ATP); details: Method K2
# T4 sequence (P35968 with tags, fused parts or gaps DEL940-989/E990V): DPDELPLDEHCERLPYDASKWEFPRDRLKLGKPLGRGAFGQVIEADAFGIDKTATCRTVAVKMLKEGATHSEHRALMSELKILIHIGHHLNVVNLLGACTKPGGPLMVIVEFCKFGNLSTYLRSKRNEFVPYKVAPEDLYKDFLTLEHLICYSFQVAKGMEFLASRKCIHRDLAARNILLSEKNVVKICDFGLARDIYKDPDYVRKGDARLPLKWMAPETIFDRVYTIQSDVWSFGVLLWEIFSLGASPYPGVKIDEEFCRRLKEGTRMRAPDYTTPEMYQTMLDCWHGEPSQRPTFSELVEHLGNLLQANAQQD
# Procedure: as §1
# [6] = molecular target: T3, phosphorylated p-38-alpha kinase; assay: P-38 alpha kinase assay P2 (as P1, not pre-incubated); details: method P2 (not pre-incubated)
# Procedure: Same as assay P1 except that (1) the reaction was not pre-incubated.
# KDR kinase [7] = molecular target: T4, KDR kinase; assay: KDR kinase assay K1 (pyruvate kinase/lactate dehydrogenase coupled, spectrophotometric); details: Method K1; read-out: KDR Data (IC50)
# Procedure: as §1
# B-Raf(V599E) kinase [8] = molecular target: T2, B-Raf(V599E) kinase; assay: B-Raf(V599E) kinase assay B1 (construct 1, MEK1 substrate, coupled spectrophotometric)
# Procedure: as §2
# Target sequence in this assay (P15056 with tags, fused parts or gaps V600E): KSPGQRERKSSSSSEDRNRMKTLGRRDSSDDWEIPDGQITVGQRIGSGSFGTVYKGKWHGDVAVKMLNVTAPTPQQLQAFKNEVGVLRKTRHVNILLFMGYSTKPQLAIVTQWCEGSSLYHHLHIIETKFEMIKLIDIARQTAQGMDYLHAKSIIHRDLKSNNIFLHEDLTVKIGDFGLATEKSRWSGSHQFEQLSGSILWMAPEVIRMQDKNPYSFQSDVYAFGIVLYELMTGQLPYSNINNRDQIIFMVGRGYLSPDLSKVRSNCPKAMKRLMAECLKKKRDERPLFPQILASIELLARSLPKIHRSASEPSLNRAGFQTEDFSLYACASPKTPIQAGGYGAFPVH
# [9] = Method A2, read-out: Abl Data (IC50)
# [10] = method P1 (2 h pre-incubation), read-out: P-38 Data
SMILES,IC50 (B-Raf(V599E) kinase [2]) [nM],IC50 (Abl kinase [1]; [9]) [nM],other results
"CC(C)(C)c1cc(NC(=O)Nc2cccc(Oc3cccnc3)c2)n(-c2cc(CC(N)=O)c3ccccc3c2)n1 [Example 86, 1-(1-(4-(2-amino-2-oxoethyl)naphthalen-2-yl)-3-t-butyl-1H-pyrazol-5-yl)-3-(3-(pyridin-3-yloxy)phenyl)urea hydrochloride]",179,,IC50 (Abl kinase [1]): 1 nM; IC50 [3]: 24 nM
"CC(C)(C)c1cc(NC(=O)Nc2cccc(Cl)c2)n(-c2cccc(C#N)c2)n1 [Example 8, 1-(3-t-butyl-1-(3-cyanophenyl)-1H-pyrazol-5-yl)-3-(3-chlorophenyl)urea]",,,"inhibition at 10 µM (Abl kinase [4]; @ 10 μM, read-out: Abl Data (percent inhibition)): 81%; inhibition at 10 µM (KDR kinase [5]; @ 10 μM, read-out: KDR Data (percent inhibition)): 96%; IC50 [6]: 25 nM"
"CC(C)(C)c1cc(NC(=O)Nc2cccc(Oc3cccnc3)c2)n(-c2ccc3c(c2)CC(C(=O)O)NC3)n1 (centres unmarked) [Example 189, 6-(3-t-butyl-5-(3-(3-(pyridin-3-yloxy)phenyl)ureido)-1H-pyrazol-1-yl)-1,2,3,4-tetrahydroisoquinoline-3-carboxylic acid]",918,3,IC50 (KDR kinase [7]): 23 nM
"Cn1c(=O)c(-c2cccc(NC(=O)Nc3cc(C(C)(C)C)nn3-c3ccc4[nH]ccc4c3)c2)cc2cncnc21 [Example 118, 1-(3-t-butyl-1-(1H-indol-5-yl)-1H-pyrazol-5-yl)-3-(3-(8-methyl-7-oxo-7,8-dihydropyrido[2,3-d]pyrimidin-6-yl)phenyl)urea]",23,11,
"Cn1c(=O)c(-c2cccc(NC(=O)Nc3cc(C4CCCC4)nn3-c3ccc4c(c3)CCC(=O)N4)c2)cc2cncnc21 [Example 134, 1-(3-cyclopentyl-1-(2-oxo-1,2,3,4-tetrahydroquinolin-6-yl)-1H-pyrazol-5-yl)-3-(3-(8-methyl-7-oxo-7,8-dihydropyrido[2,3-d]pyrimidin-6-yl)phenyl)urea]",41,52,
"CC(C)(C)c1cc(NC(=O)Nc2cccc(Cl)c2Cl)n(-c2ccc3nc[nH]c(=O)c3c2)n1 [Example 195, 1-(3-t-butyl-1-(4-oxo-3,4-dihydroquinazolin-6-yl)-1H-pyrazol-5-yl)-3-(2,3-dichlorophenyl)urea]",298,910,"IC50 [3, 10]: 46 nM"
"CNC(=O)c1cc(Oc2ccc(NC(=O)Nc3cc(C(C)(C)C)nn3-c3ccc4nc(NC)ccc4c3)cc2)ccn1 [Example 174, 1-(3-t-butyl-1-(2-(methylamino)quinolin-6-yl)-1H-pyrazol-5-yl)-3-(4-(2-(methylcarbamoyl)pyridin-4-yloxy)phenyl)urea]",245,1.8,
"CC(C)(C)c1cc(NC(=O)Nc2cccc(Br)c2)n(-c2cccc(C#N)c2)n1 [Example 5, 1-(3-t-butyl-1-(3-cyanophenyl)-1H-pyrazol-5-yl)-3-(3-bromophenyl)urea]",,,IC50 (Abl kinase [4]; read-out: Abl Data (IC50)): 2000 nM; IC50 (B-Raf(V599E) kinase [8]): 87 nM; IC50 (KDR kinase [5]; read-out: KDR Data (IC50)): 850 nM; IC50 [6]: 38 nM
"Cn1c(=O)c(-c2cccc(NC(=O)Nc3cc(C(C)(C)C)nn3-c3ccc4c(c3)CCN4S(C)(=O)=O)c2)cc2cncnc21 [Example 197, 1-(3-t-butyl-1-(1-(methylsulfonyl)indolin-5-yl)-1H-pyrazol-5-yl)-3-(3-(8-methyl-7-oxo-7,8-dihydropyrido[2,3-d]pyrimidin-6-yl)phenyl)urea]",27,12,"IC50 [3, 10]: 28 nM"
"CC(C)(C)c1cc(NC(=O)Nc2cccc(Cl)c2Cl)n(-c2ccc3[nH]ncc3c2)n1 [Example 121, 1-(3-t-butyl-1-(1H-indazol-5-yl)-1H-pyrazol-5-yl)-3-(2,3-dichlorophenyl)urea]",105,1000,"IC50 [3, 10]: 40 nM"
"CNC(=O)c1cc(Oc2cccc(NC(=O)Nc3cc(C(C)(C)C)nn3-c3ccc4[nH]c(=O)ccc4c3)c2)ccn1 [Example 157, 1-(3-t-butyl-1-(2-oxo-1,2-dihydroquinolin-6-yl)-1H-pyrazol-5-yl)-3-(3-(2-(methylcarbamoyl)pyridin-4-yloxy)phenyl)urea]",40,31,
"CC(C)(C)c1cc(NC(=O)Nc2cccc(Cl)c2Cl)n(-c2ccc3cn[nH]c3c2)n1 [Example 120, 1-(3-t-butyl-1-(1H-indazol-6-yl)-1H-pyrazol-5-yl)-3-(2,3-dichlorophenyl)urea]",214,5100,
